# Assay results from publication PMC4842970, “Bioactivity Focus of α-Cyano-4-hydroxycinnamic acid (CHCA) Leads to Effective Multifunctional Aldose Reductase Inhibitors” (Scientific Reports, 2016).
# Key:
# [1] = Stability in DMEM containing 5% FBS (RP-HPLC); format: in vitro ADME; conditions: 37 °C, 12 h incubation
# Experimental: Predicted from its structure, the stability of 5f will be good and the toxicity will be low. […] After 12 h incubation, 86% of 5f remained intact.
# The sample was incubated in high-glucose Dulbecco’s modified Eagle’s medium (DMEM) containing 5% fetal calf serum (FBS) for a period of 48 h. Analyses were scheduled at 0.5, 1.0, 4.0, 8.0, 12.0, 24.0, and 48.0 h. Reverse-phase high performance liquid chromatography (RP-HPLC) was performed on a Cosmosil column (C18, […], 4.6 × 250 mm) using an LC-100 fluid unit (Shanghai Wufeng Inc., China) with a tunable LC-100 UV detector. The eluent was various percentages of methanol containing pure water (flow rate: 1.0 ml/min; λ: 254 nm). The experiments were repeated at least 3 times and compared with the control experiment. The results were shown in Supporting Infromation.
# chick embryo = assay: Chick embryo model of hyperglycemia: mortality, NTD rate, body weight; format: in vivo; conditions: glucose 0.4 mmol/egg
# Experimental: In order to evaluate further the potential of 5f as an agent to treat diseases caused by high glucose inside the system, a chick embryo model of treatment with high glucose was set up.
# Fertilized leghorn eggs were purchased from the Avian Farm of the South China Agriculture University (Guangzhou, China). Before the injection of glucose (Sigma–Aldrich, MO, USA), the eggs were incubated in a humidified incubator (Grumbach, Germany) at 37 °C with 60% humidity until the embryos reached the desired stage. […] Glucose was dissolved in 200 μL chicken saline and injected on EDD 1. Mortality, abnormality and body weight measurements were made on EDD 5. Embryos were removed from their eggs and weighed. The percent mortality was measured by counting the number of dead versus all embryos. The rate of NTD of the embryos was assessed by the number of NTD versus survival embryos.
# [2] = Plasma glucose in chick embryos; format: in vivo; conditions: glucose-treated chick embryos, EDD 5
# Experimental: Figure 4 5f restored neural tube development and marker expression in chick embryos on EDD 5. Glucose concentration (A) and Pax3 protein expression (B) were determined in chick embryos. The plasma glucose concentration was measured using a glucose oxidase-coupled spectrophotometric assay kit. Proteins were detected using the monoclonal antibody anti-Pax3 diluted 1:1000 (DSHB, USA) and visualized using anti-mouse IgG conjugated with horseradish peroxidase (HRP) and Pierce ECL Western Blotting Substrate (Thermo Fisher Scientific, USA) as the substrate of HRP. […] Values were expressed as mean ± SD in each group (n = 10). *P < 0.05, **P < 0.01 vs. control. ^#P < 0.05, ^##P < 0.01 vs. glucose.
# The ventricles of embryos were punctured with a 20-gauge needle. At this early embryonic age, 30–40 μL of blood was obtained from the embryos on each EDD 5. The blood containing heparin was centrifuged at 3000 rpm for 15 min. The plasma glucose concentration was measured using a glucose oxidase-coupled spectrophotometric assay kit obtained from Sigma Chemical Co. (St. Louis, MO, USA) according to the manufacturer’s instructions.
# [3] = test system: oxidative stress (ROS, MDA, ORAC); assay: ROS generation, MDA and ORAC level in chick embryos; format: in vivo; conditions: glucose-treated chick embryos
# Excerpt: It has been reported that hyperglycemia increased the production of ROS. Blocking the generation of ROS could at least partially prevent the possible damage of hyperglycemia. No doubt, oxidative stress will be induced in glucose treated embryos. This conclusion was confirmed by the determination of ROS and malondialdehyde (MDA) levels, and the anti-oxidation ability in chick embryos on EDD 5. […] However, treatment of 5f decreased both levels of ROS and MDA in a dose-dependent manner.
# In addition, the ORAC level is indicative of the anti-oxidative capacity.
# ROS generation ratios in the eyes of EDD 5 chick embryos were detected with 5 μmol 2′,7′-dichlorofluorescein-diacetate (DCFH-DA, Sigma-Aldrich). The peroxide content was determined by measuring thiobarbituric-acid-reactive substances (TBARS) with a commercial MDA kit (Nanjing Jiancheng Institute of Biotechnology, Nanjing, China). The procedures for the ORAC assay were modified from the previously described method. The automated ORAC assay was carried out on a decay of the fluorescein signal and determined with an excitation/emission filter pair of 485/527 nm in a GENios Lueifcrase microplate reader (TECAN) at 37 °C. Final results were calculated on the basis of the difference in the area under the fluorescein decay curve between the blank and each sample.
# [4] = ORACFL radical absorbance capacity assay
# Excerpt: With the CHCA scaffold, we hypothesized that 5a–j should have antioxidant activity. Therefore, a radical absorbance capacity assay (ORACFL)[41] was employed to assess their capacities. This method is based on the inhibition of peroxyl-radical-induced oxidation initiated by thermal decomposition of azo-compounds, in this case 2,2′-azo-bis (2-amidinopropane) dihydrochloride (AAPH). Trolox (6-hydroxy-2,5,7,8-tetramethylchroman-2-carboxylic acid) was used as a standard reference. Data is expressed as micromoles of Trolox equivalents (TE) per […] of sample (μmol TE/ml or U/ml).
# Antioxidant capacity was determined according to the procedure described previously.
# HEK293 cells = assay: Cytotoxicity, MTT growth inhibition; format: cell-based, human; conditions: 500 μM
# Experimental: In another aspect, the toxicity was evaluated by the growth inhibition of 5f against human embryonic kidney 293 (HEK293) cells. It was shown that 5f was nontoxic to HEK293 cells even at high concentration of 500 μM (Supplementary B of Fig. S2).
# HEK293 cells were purchased from Centre of Cells Resource, Shanghai Institute of Life Science, Chinese Academy of Sciences, P. R. China. HEK293 cells in the exponential phase were plated on a 96-well cell culture plate with 5 × 10^3 cells in each well supplemented with 100 U/ml of penicillin and 100 μg/ml of streptomycin, which were cultured in a humidified atmosphere of 95% and 5% CO2 at 37 °C for 24 h. The cells were adherent. […] 6 wells were set for each group. The wells without addition of the drug were set as controls. The cells in each of the wells were cultured for another 24 h. Then 15 μl of MTT (5 mg/mL) was added to each well. The plates were then incubated at 37 °C for 4 hours, then the supernatants were discarded. 150 μL of DMSO solutions were added to each of the wells and the solutions were mixed thoroughly. Then the plates were incubated at 37 °C for another 10 minutes. Each sample was mixed again and the resulting formazan was measured by its absorbance at 570 nm using a BIO-RAD680 plate reader (Thermo, USA). The experiments were repeated at least 3 times and compared with the control experiment. […]
compound,measurement,setting,value
"CC(=O)N[C@H](COCc1ccccc1)C(=O)NCCCNC(=O)/C(C#N)=C/c1ccc(O)cc1 [Compound 5f, (R,E) - N - (3-(2-acetamido-3-(benzyloxy)propanamido)propyl)-2-cyano-3-(4-hydroxyphenyl)acrylamide]",remained intact,[1],86%
same,Body weight,"chick embryo; EDD 5, dose 10 nM (CL)",291.3 ± 10.2 mg
same,Death (/n),"chick embryo; EDD 5, dose 10 nM (CL)",35.0%
same,NTD (/survival),"chick embryo; EDD 5, dose 10 nM (CL)",46.20%
same,Body weight,"chick embryo; EDD 5, dose 100 nM (CM)",295.9 ± 13.2 mg
same,Death (/n),"chick embryo; EDD 5, dose 100 nM (CM)",30.0%
same,NTD (/survival),"chick embryo; EDD 5, dose 100 nM (CM)",35.7%
same,Body weight,"chick embryo; EDD 5, dose 1 μM",307.9 ± 10.5 mg
same,Death (/n),"chick embryo; EDD 5, dose 1 μM",25.0%
same,NTD (/survival),"chick embryo; EDD 5, dose 1 μM",20.0%
same,plasma glucose level,[2],did not lower
same,ORAC level (anti-oxidative capacity) of embryo,[3]; EDD 5,recovered
same,MDA level in embryo,"[3]; EDD 5, dose 1 μM",to a normal state
same,ROS level in embryo,"[3]; EDD 5, dose 1 μM",to a normal state
same,ORAC,[4]; 3.125 μg/ml,68.1 ± 2.3 U/ml
same,ORAC,[4]; 6.25 μg/ml,66.5 ± 1.6 U/ml
same,ORAC,[4]; 12.5 μg/ml,65.7 ± 5.1 U/ml
same,ORAC value,[4]; concentration of 3.125 μM,65.7 U/ml
same,inhibition rate (growth inhibition),HEK293 cells,19.2%
